Source: PubChem BioAssay AID248 (DTP/NCI, 2004)
“And” between values parts separate entries of the source, which are not always exact repeats. Identical values can stand only once. Toxic doses and inconclusive results are not listed. Rule as the data show it: active = T/C of 150% or more; inactive = T/C below 125%.

Tested on: L1210 leukemia ip in BDF1 mice, survival T/C
Test: NCI In Vivo Anticancer Drug Screen. Data for tumor model L1210 Leukemia (intraperitoneal) in B6D2F1 (BDF1) mice
Conditions: endpoint: mean survival time, higher = longer survival
In short: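 Ratio derived from survival: compound-dosed mice over vehicle-dosed mice, all bearing a transplantable tumor.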

[1] = dose: 100.0 mg/kg/injection, schedule: Q01DX001 (ip), vehicle: saline
[2] = dose: 200.0 mg/kg/injection, schedule: Q01DX001 (ip), vehicle: saline
[3] = dose: 400.0 mg/kg/injection, schedule: Q01DX001 (ip), vehicle: saline
[4] = dose: 100.0 mg/kg/injection, schedule: Q04DX003 (ip), vehicle: Klucel (hydroxypropylcellulose) (HPC)
[5] = dose: 200.0 mg/kg/injection, schedule: Q04DX003 (ip), vehicle: Klucel (hydroxypropylcellulose) (HPC)
[6] = dose: 400.0 mg/kg/injection, schedule: Q04DX003 (ip), vehicle: Klucel (hydroxypropylcellulose) (HPC)
[7] = dose: 100.0 mg/kg/injection, schedule: Q04DX003 (ip), vehicle: saline with Tween-80
[8] = dose: 200.0 mg/kg/injection, schedule: Q04DX003 (ip), vehicle: saline with Tween-80
[9] = dose: 100.0 mg/kg/injection, schedule: Q04DX002 (ip), vehicle: Klucel (hydroxypropylcellulose) (HPC)
[10] = dose: 200.0 mg/kg/injection, schedule: Q04DX002 (ip), vehicle: Klucel (hydroxypropylcellulose) (HPC)
[11] = dose: 100.0 mg/kg/injection, schedule: Q01DX009 (ip), vehicle: Klucel (hydroxypropylcellulose) (HPC)
[12] = dose: 50.0 mg/kg/injection, schedule: Q01DX009 (ip), vehicle: saline with Tween-80

Measured: T/C

C1CCC2(CC1)CCCC2
inactive: dose: 75.0 mg/kg/injection, schedule: Q01DX001 (ip), vehicle: saline with Tween-80 95 % of control | dose: 150.0 mg/kg/injection, schedule: Q01DX001 (ip), vehicle: saline with Tween-80 92 % of control | dose: 300.0 mg/kg/injection, schedule: Q01DX001 (ip), vehicle: saline with Tween-80 104 % of control

O=C1NC(=O)C(c2ccccc2)(c2ccsc2)N1 (stereo not given)
inactive: [1] 95 % of control | [2] 90 % of control | [3] 95 % of control

CCCCC(CCCC)NCC(C)OC(=O)c1ccc(N)cc1 (stereo not given)
inactive: dose: 9.5 mg/kg/injection, schedule: Q01DX001 (ip), vehicle: other 100 % of control | dose: 19.0 mg/kg/injection, schedule: Q01DX001 (ip), vehicle: other 105 % of control | dose: 38.0 mg/kg/injection, schedule: Q01DX001 (ip), vehicle: other 96 % of control | dose: 75.0 mg/kg/injection, schedule: Q01DX001 (ip), vehicle: other 92 % of control

O=C(Nc1ccc(Cl)c(Cl)c1)OCn1ncc2ccc([N+](=O)[O-])cc21
inactive: [2] 96 % of control | [3] 100 % of control

CCCCCCCCCCCCCCCCCCCCC1CC(=O)OC1=O (stereo not given)
inactive: [4] 91 % of control | [5] 92 % of control | [6] 91 % of control

O=C(CC(O)(C(F)(F)F)C(F)(F)F)c1ccc(F)cc1
inactive: [7] 94 % of control | [8] 92 % of control | dose: 400.0 mg/kg/injection, schedule: Q04DX003 (ip), vehicle: saline with Tween-80 103 % of control

CC(=O)N(C)c1ccc(NC(=O)Nc2cc([N+](=O)[O-])ccc2C)cc1
inactive: [9] 106 % of control | [10] 108 % of control | dose: 400.0 mg/kg/injection, schedule: Q04DX002 (ip), vehicle: Klucel (hydroxypropylcellulose) (HPC) 101 % of control

CC(=O)CC(=O)Nc1cccc(C)n1
inactive: [1] 100 % of control | [9] 94 % of control | [2] 110 % of control | [10] 97 % of control

O=C1/C(=C/c2ccccc2)SC(=S)N1C1OC(CO)C(O)C(O)C1O (stereo not given)
inactive: dose: 12.5 mg/kg/injection, schedule: Q01DX005 (ip), vehicle: other 98 % of control | dose: 25.0 mg/kg/injection, schedule: Q01DX005 (ip), vehicle: other 98 % of control | dose: 50.0 mg/kg/injection, schedule: Q01DX005 (ip), vehicle: other 106 % of control | dose: 100.0 mg/kg/injection, schedule: Q01DX005 (ip), vehicle: other 101 % of control | dose: 200.0 mg/kg/injection, schedule: Q01DX005 (ip), vehicle: other 98 % of control

CCC(C)(OC(=O)c1ccc([N+](=O)[O-])cc1)C(C)C (stereo not given)
inactive: dose: 75.0 mg/kg/injection, schedule: Q04DX002 (ip), vehicle: saline with Tween-80 95 % of control | dose: 150.0 mg/kg/injection, schedule: Q04DX002 (ip), vehicle: saline with Tween-80 91 % of control

O=C(O)c1c2ccccc2cc2ccccc12
inactive: [11] 105 % of control | dose: 200.0 mg/kg/injection, schedule: Q01DX009 (ip), vehicle: Klucel (hydroxypropylcellulose) (HPC) 107 % of control | dose: 400.0 mg/kg/injection, schedule: Q01DX009 (ip), vehicle: Klucel (hydroxypropylcellulose) (HPC) 104 % of control

COC(=O)C(C)C1(O)CCCCC1 (stereo not given)
inactive: dose: 100.0 mg/kg/injection, schedule: Q01DX009 (ip), vehicle: saline 96 % of control | dose: 200.0 mg/kg/injection, schedule: Q01DX009 (ip), vehicle: saline 93 % of control | dose: 400.0 mg/kg/injection, schedule: Q01DX009 (ip), vehicle: saline 91 % of control

CC(=O)N(C)c1cc(N)ccc1OCc1ccccc1
inactive: dose: 12.5 mg/kg/injection, schedule: Q04DX003 (ip), vehicle: saline with Tween-80 91 % of control | dose: 25.0 mg/kg/injection, schedule: Q01DX009 (ip), vehicle: saline with Tween-80 100 % of control | dose: 25.0 mg/kg/injection, schedule: Q04DX003 (ip), vehicle: saline with Tween-80 98 % of control and 101 % of control | [12] 96 % of control | dose: 50.0 mg/kg/injection, schedule: Q04DX003 (ip), vehicle: saline with Tween-80 95 % of control and 102 % of control | dose: 100.0 mg/kg/injection, schedule: Q01DX009 (ip), vehicle: saline with Tween-80 102 % of control | [7] 95 % of control and 113 % of control | [8] 97 % of control

O=C(Nc1cc(Cl)cc2c1-c1c(Cl)cc(Cl)cc1C2)C(Cl)Cl
inactive: dose: 50.0 mg/kg/injection, schedule: Q04DX003 (ip), vehicle: Klucel (hydroxypropylcellulose) (HPC) 100 % of control | [11] 97 % of control | [4] 92 % of control | [5] 94 % of control | [6] 100 % of control

COc1ccccc1/C=C(/C)C(C)=O
inactive: dose: 75.0 mg/kg/injection, schedule: Q04DX003 (ip), vehicle: Klucel (hydroxypropylcellulose) (HPC) 102 % of control | dose: 100.0 mg/kg/injection, schedule: Q01DX001 (ip), vehicle: carboxymethylcellulose (CMC) 103 % of control | dose: 150.0 mg/kg/injection, schedule: Q04DX003 (ip), vehicle: Klucel (hydroxypropylcellulose) (HPC) 97 % of control | dose: 200.0 mg/kg/injection, schedule: Q01DX001 (ip), vehicle: carboxymethylcellulose (CMC) 108 % of control | dose: 300.0 mg/kg/injection, schedule: Q04DX003 (ip), vehicle: Klucel (hydroxypropylcellulose) (HPC) 94 % of control | dose: 400.0 mg/kg/injection, schedule: Q01DX001 (ip), vehicle: carboxymethylcellulose (CMC) 97 % of control

CC1=CC2=C(C=O)C(=O)[C@](C)(O)[C@@H](O)C2=CO1
inactive: [12] 109 % of control | [7] 93 % of control | [8] 117 % of control
